The values that follow come from PubChem BioAssay (NCI).

The structures appear in SMILES notation. Several values for one entry are separate records, joined by “and”; a condition that tells them apart may be missing. Equal entries are not always repeated.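 Compound exposure: 48 hours, 5 concentrations, 96-well plates. Abbreviation: GI50, concentration required for 50% inhibition of growth. TGI denotes the concentration required for complete inhibition of growth.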

Test systems include HT29 colon; OVCAR-5 ovarian; SNB-75 CNS; SK-MEL-28 melanoma; DU-145 prostate; COLO 205 colon; SK-MEL-5 melanoma; OVCAR-8 ovarian; MOLT-4 leukemia; NCI-H226 lung.
Holding throughout (assay): DTP human tumour cell line panel, 48 h

Take `Cc1cc2c(SCc3ccccc3Cl)nc(N)nc2nc1C`: the TGI in the assay on HT29 colon, in the assay with OVCAR-5 ovarian, in the assay with SNB-75 CNS, in the assay with SK-MEL-28 melanoma, in the assay on DU-145 prostate and in the assay on COLO 205 colon was more than 100 µM throughout. The concentration for total growth inhibition (TGI) in the assay on SK-MEL-5 melanoma and with OVCAR-8 ovarian was more than 100 µM throughout.

Turning to `NC1=NN(c2ccccc2)C(=O)C1/C(=N\NC(=O)c1cc2ccccc2cc1O)C(=O)Nc1ccc(Cl)cc1` (stereo not drawn), the TGI is more than 100 µM in the assay on HT29 colon; 40.5 µM in the assay on MOLT-4 leukemia; more than 100 µM in the assay with OVCAR-5 ovarian; 54.8 µM with SNB-75 CNS; more than 100 µM in the assay on SK-MEL-28 melanoma; 49.7 µM in the assay on COLO 205 colon. The concentration for total growth inhibition (TGI) was 56.5 µM with SK-MEL-5 melanoma, more than 100 µM in the assay on OVCAR-8 ovarian and more than 100 µM in the assay with NCI-H226 lung.

For the compound `Nc1ccc2ncc(Nc3ccc(Cl)c(Cl)c3)nc2c1`, the TGI with HT29 colon is 34.9 µM; in the assay with MOLT-4 leukemia it was 65.1 µM; in the assay on OVCAR-5 ovarian, more than 100 µM; with SNB-75 CNS, 59.4 µM; in the assay on SK-MEL-28 melanoma, 84.1 µM; in the assay with COLO 205 colon, 32.9 µM. In addition, the results for the concentration for total growth inhibition (TGI) with SK-MEL-5 melanoma, in the assay on OVCAR-8 ovarian and in the assay on NCI-H226 lung were 36.1 µM, 83.3 µM and 62.6 µM, respectively.

For the compound `O=C(/C=C/c1ccc(OCC(=O)N2CCN(c3ccccc3)CC2)cc1)c1ccccc1`, the total growth inhibition concentration (TGI) with HT29 colon was more than 100 µM; with MOLT-4 leukemia, more than 25.2 µM; in the assay on OVCAR-5 ovarian, more than 90 µM; in the assay with SNB-75 CNS, more than 78.9 µM; in the assay with SK-MEL-28 melanoma, 54.5 µM; in the assay with COLO 205 colon it was more than 100 µM. Also, the TGI is more than 53 µM in the assay with SK-MEL-5 melanoma, more than 67.5 µM in the assay with OVCAR-8 ovarian and more than 60.4 µM in the assay with NCI-H226 lung.

On to `C=CCCC1(CCP(=O)(c2ccccc2)c2ccccc2)OCCO1`, for which the TGI in the assay on HT29 colon, in the assay with MOLT-4 leukemia, in the assay on OVCAR-5 ovarian, in the assay with SNB-75 CNS, in the assay with SK-MEL-28 melanoma and in the assay with DU-145 prostate was more than 100 µM throughout. Moreover, the TGI with COLO 205 colon, in the assay with SK-MEL-5 melanoma and in the assay on OVCAR-8 ovarian was more than 100 µM in each case.

Take `Cc1c(C(=O)C/C(=N/NC(=O)CC#N)C(N)=O)[n+](=O)c2ccccc2n1[O-]`: the TGI in the assay with HT29 colon, in the assay on MOLT-4 leukemia, with OVCAR-5 ovarian, in the assay on SNB-75 CNS, in the assay on SK-MEL-28 melanoma and with COLO 205 colon was more than 100 µM in each case. Also, the total growth inhibition concentration (TGI) in the assay with SK-MEL-5 melanoma, with OVCAR-8 ovarian and in the assay with NCI-H226 lung was more than 100 µM each time.

Turning to `O=C(Nc1ccccc1)Oc1ccccc1C1CCCCC1`, the TGI is 51.6 µM in the assay on HT29 colon; more than 100 µM in the assay on MOLT-4 leukemia; more than 100 µM in the assay on OVCAR-5 ovarian; 39.9 µM with SNB-75 CNS; 58.1 µM with SK-MEL-28 melanoma; 30.6 µM in the assay on COLO 205 colon. The values for the total growth inhibition concentration (TGI) in the assay on SK-MEL-5 melanoma, in the assay on OVCAR-8 ovarian and in the assay with NCI-H226 lung were 26.9 µM, more than 100 µM and 37.6 µM, respectively.

On to `CCOC(=O)/C(=C/c1ccc[nH]1)P(=O)(OCC)OCC`, for which the TGI in the assay with HT29 colon, with MOLT-4 leukemia, in the assay with OVCAR-5 ovarian, with SNB-75 CNS, with SK-MEL-28 melanoma and with COLO 205 colon was more than 100 µM throughout. Moreover, the TGI with SK-MEL-5 melanoma, with OVCAR-8 ovarian and with NCI-H226 lung was more than 100 µM throughout.

`CCCNc1ncnc2c1cnn2C`: the TGI with HT29 colon, with MOLT-4 leukemia, in the assay with OVCAR-5 ovarian, in the assay on SNB-75 CNS, in the assay on SK-MEL-28 melanoma and in the assay with COLO 205 colon was more than 100 µM each time. Further, the TGI in the assay with SK-MEL-5 melanoma, in the assay with OVCAR-8 ovarian and with NCI-H226 lung was more than 100 µM in each case.

`Brc1ccc2c(c1)-c1ccccc1C1=NCCN12`: the GI50 in the assay with HT29 colon was 0.478 µM; in the assay with MOLT-4 leukemia, 0.419 µM; in the assay with OVCAR-5 ovarian, 1.64 µM; in the assay on SNB-75 CNS, 1.53 µM; in the assay with SK-MEL-28 melanoma, 1.8 µM; with DU-145 prostate it was 1.09 µM. For the same compound, the GI50 in the assay on COLO 205 colon is 0.652 µM; with SK-MEL-5 melanoma, 1.52 µM; with OVCAR-8 ovarian, 0.573 µM. Also, the TGI in the assay on HT29 colon is 3.33 µM; in the assay on MOLT-4 leukemia it was 3.73 µM; with OVCAR-5 ovarian, 10.4 µM; in the assay on SNB-75 CNS, 4.15 µM; in the assay on SK-MEL-28 melanoma it was 3.63 µM; in the assay on DU-145 prostate, 10.9 µM. For the same compound, the TGI with COLO 205 colon stood at 2.33 µM; in the assay with SK-MEL-5 melanoma, 3.24 µM; in the assay on OVCAR-8 ovarian it was 12.1 µM.

On to `O=C(/C=C/N1CCN(c2cccc(Cl)c2)CC1)c1ccc(Cl)cc1`, for which the GI50 is 32.8 µM with HT29 colon; 33.5 µM in the assay with MOLT-4 leukemia; 49.7 µM in the assay on OVCAR-5 ovarian; 39.9 µM in the assay on SK-MEL-28 melanoma; 38.4 µM in the assay with DU-145 prostate; 36.2 µM with COLO 205 colon. For the same compound, the GI50 in the assay with SK-MEL-5 melanoma was 16.5 µM; in the assay on OVCAR-8 ovarian, 34.5 µM. In addition, the TGI in the assay with HT29 colon was more than 100 µM; in the assay on MOLT-4 leukemia, more than 100 µM; in the assay with OVCAR-5 ovarian, more than 100 µM; in the assay with SK-MEL-28 melanoma it was 91.2 µM; in the assay on DU-145 prostate, more than 100 µM; with COLO 205 colon it was more than 100 µM. For the same compound, the TGI in the assay with SK-MEL-5 melanoma was 31.5 µM; with OVCAR-8 ovarian it was more than 100 µM.

Consider `CCOC(=O)c1c(/C=N\Nc2ccccc2)nc2ccccc2c1-c1ccccc1`, for which the TGI in the assay with HT29 colon is more than 100 µM; in the assay with MOLT-4 leukemia, 68.8 µM; in the assay on OVCAR-5 ovarian, more than 100 µM; in the assay with SNB-75 CNS, more than 100 µM; in the assay on SK-MEL-28 melanoma, more than 100 µM; in the assay with COLO 205 colon, 53 µM. The TGI with SK-MEL-5 melanoma is 85.6 µM; in the assay on OVCAR-8 ovarian, more than 100 µM; in the assay with NCI-H226 lung it was more than 100 µM.

Take `Cc1nc(-c2cccnc2)sc1C(=O)/C=C/c1ccc(Cl)cc1Cl`: the concentration for total growth inhibition (TGI) in the assay on HT29 colon, in the assay with MOLT-4 leukemia, in the assay with OVCAR-5 ovarian, in the assay on SNB-75 CNS, in the assay on SK-MEL-28 melanoma and with COLO 205 colon was more than 100 µM each time. Also, the concentration for total growth inhibition (TGI) with SK-MEL-5 melanoma, with OVCAR-8 ovarian and with NCI-H226 lung was more than 100 µM throughout.

With `O=C(O)C12C3C4C1C1C2C3C41I` (stereo not drawn), the TGI in the assay with HT29 colon, with MOLT-4 leukemia, in the assay with OVCAR-5 ovarian, with SNB-75 CNS, in the assay on SK-MEL-28 melanoma and in the assay on COLO 205 colon was more than 100 µM each time. Further, the total growth inhibition concentration (TGI) with SK-MEL-5 melanoma, in the assay on OVCAR-8 ovarian and with NCI-H226 lung was more than 100 µM in each case.

For `NC1CC(n2ccc(=O)[nH]c2=O)OC1C(O)CO` (stereo not drawn), the total growth inhibition concentration (TGI) in the assay with HT29 colon, with MOLT-4 leukemia, in the assay with OVCAR-5 ovarian, in the assay with SNB-75 CNS, in the assay on SK-MEL-28 melanoma and in the assay on COLO 205 colon was more than 100 µM throughout. Also, the total growth inhibition concentration (TGI) in the assay with SK-MEL-5 melanoma, in the assay with OVCAR-8 ovarian and in the assay on NCI-H226 lung was more than 100 µM each time.

On to `Cc1cc(C2(c3cc(C)c(O)c4ncccc34)OC(=O)c3ccccc32)c2cccnc2c1O`, for which the GI50 was 0.106 µM with HT29 colon, more than 100 µM with SK-MEL-28 melanoma, 0.242 µM with DU-145 prostate and 0.405 µM in the assay with COLO 205 colon. The concentration for total growth inhibition (TGI) with HT29 colon is more than 100 µM; in the assay with MOLT-4 leukemia, more than 100 µM; with OVCAR-5 ovarian, more than 100 µM; in the assay on SNB-75 CNS, 6.82 µM and 8.1 µM; in the assay on SK-MEL-28 melanoma, more than 100 µM; in the assay with DU-145 prostate, more than 100 µM. The total growth inhibition concentration (TGI) in the assay on COLO 205 colon is 28.5 µM; with SK-MEL-5 melanoma, 0.0574 µM; in the assay on OVCAR-8 ovarian, more than 100 µM.

As to `CC(C)=NO.CC(C)=NO.CC(C)=NO.CC(C)=NO.[Ti]`, the GI50 with HT29 colon, in the assay on MOLT-4 leukemia, in the assay with OVCAR-5 ovarian, in the assay with SNB-75 CNS, in the assay on SK-MEL-28 melanoma and with COLO 205 colon was more than 100 µM throughout. Moreover, the GI50 with SK-MEL-5 melanoma, in the assay with OVCAR-8 ovarian and in the assay on NCI-H226 lung was more than 100 µM in each case. Further, the total growth inhibition concentration (TGI) with HT29 colon, in the assay on MOLT-4 leukemia, with OVCAR-5 ovarian, with SNB-75 CNS, with SK-MEL-28 melanoma and in the assay on COLO 205 colon was more than 100 µM in each case. Further, the TGI with SK-MEL-5 melanoma, in the assay with OVCAR-8 ovarian and in the assay on NCI-H226 lung was more than 100 µM throughout.

`CCOC(=O)Oc1ccc2[nH]c3c(C)cc(N)c(C)c3c2c1`: the TGI in the assay on HT29 colon, with MOLT-4 leukemia, in the assay on OVCAR-5 ovarian, in the assay with SNB-75 CNS, in the assay with SK-MEL-28 melanoma and with COLO 205 colon was more than 100 µM throughout. For the same compound, the total growth inhibition concentration (TGI) in the assay with SK-MEL-5 melanoma, in the assay with OVCAR-8 ovarian and in the assay with NCI-H226 lung was more than 100 µM in each case.

For the compound `Cn1ncc2c(c1=O)Nc1ccccc1S2(=O)=O`, the TGI with HT29 colon, in the assay on MOLT-4 leukemia, in the assay with OVCAR-5 ovarian, in the assay with SNB-75 CNS, in the assay on SK-MEL-28 melanoma and in the assay on COLO 205 colon was more than 100 µM throughout. The concentration for total growth inhibition (TGI) in the assay on SK-MEL-5 melanoma, in the assay with OVCAR-8 ovarian and in the assay on NCI-H226 lung was more than 100 µM each time.

For the compound `O=[N+]([O-])c1cccc(C2=NOC3CCCC23)c1` (stereo not drawn), the concentration for total growth inhibition (TGI) in the assay on HT29 colon, in the assay on MOLT-4 leukemia, in the assay on OVCAR-5 ovarian, with SNB-75 CNS, in the assay on SK-MEL-28 melanoma and in the assay on COLO 205 colon was more than 100 µM each time. In addition, the TGI with SK-MEL-5 melanoma, in the assay on OVCAR-8 ovarian and with NCI-H226 lung was more than 100 µM in each case.
